The text below walks through data of US12152048B2, “Nitroxoline prodrug and use thereof” (Jiangsu Yahong Meditech Co., Ltd., priority 2018, dated 2024).

Values after ≈ are worked out from the molar mass of the structure shown.

Data set [1] can be described thus: Determination of water solubility in phosphate buffer. It is filed as physicochemical. Conditions: for solubility at 24 h: thermodynamic from solid; for water solubility compared with nitroxoline: conclusion in words. The text has this:
Experimental instruments: 96-well filter plate (MSHVN4510 or MSHVN4550, Millipore); electronic digital display vortex mixer (MS3 Digital, IKA); multi-purpose vacuum pump (circulating water type, SHB-111, Zhengzhou Greatwall Scientific Industrial and Trade Co., Ltd.); balance (XSLT05, Mettler-Toledo); comfortable mixer (Eppendorf AG 22331 Hamburg, Eppendorf); liquid chromatography (LC-3AD, Shimadzu); mass spectrometry (API4000, Applied Biosystems, USA); sample injector (Anylytics AG System, CTC). Nitroxoline was prepared according to the method disclosed in Journal of Heterocyclic Chemistry, 1971, vol. 8, p 821 by Wisdom Pharmaceutical Co., Ltd.
Experimental process: 500 μL of phosphate buffer (pH=1.2, 4.5, 6.8 or 7.4) were added to a glass flask, to which 2 mg of compound powder were added. The flask was sealed with a cap and shaked on a mixer (VORTEX-GENIE2) at room temperature for 24 hours. The solution was subjected to vacuum filtration, and the filtrate was processed to determine the compound concentration by LC/MS/MS.

A short description of data set [2]: Stability in dog liver microsome. To be noted: 2 μM, 37° C., 30 minutes. A general note: Liver microsomes are a subcellular fraction often used to study metabolism.
Data set [3] can be described thus: Stability in rat liver microsome. To be noted: 2 μM, 37° C., 30 minutes.
A short description of data set [4]: Stability in human liver microsome. Conditions: 2 μM, 37° C., 30 minutes.
Procedure: Experimental instruments: thermostatic shaker (SHA-B, Guohua Electric Appliance Co., Ltd.); centrifuge (5810R, Eppendorf); mass spectrometry (API4000, Applied Biosystems, USA); liquid chromatography (LC-30AD, Shimadzu); sample injector (CTC Analytics AG System, CTC).
Experimental process: 25 μg/mL alamethicin (Aldrich), 5 mM magnesium chloride and 0.5 mg/mL microsome (XENOTECH) were added to 100 mM phosphate buffer to obtain a coenzyme-free reaction solution. A portion of the coenzyme-free reaction solution was added with 1 mM reductive nicotinamide adenine dinucleotide phosphate (Aldrich) and 5 mM uridine diphosphate glucuronic acid (Aldrich) to obtain a coenzyme-containing reaction solution. The working solution of the compound of the present invention was added to the two reaction solutions so that the final concentration of the compound was 2 μM. Immediately after mixing well, 50 μL of the solution were taken out as the 0 minute sample, and 50 μL of the remaining sample were taken out after incubating at 37° C. for 30 minutes. All the samples taken out were immediately processed to precipitate protein, and centrifuged to obtain a supernate for the determination of the compound concentration by LC/MS/MS.
A short description of data set [5]: Stability in mouse liver microsome. Format: in vitro ADME. To be noted: 2 μM, 37° C., 30 minutes.
The mark [6] stands for this setting: aqueous buffer, phosphate buffer pH 7.4, room temperature.
Where [7] appears, read: simulated gastric fluid, phosphate buffer pH 1.2, room temperature.

Broadly, the solubility is how much of the substance goes into solution per volume.

With `O=C(O)CCC(=O)OCOc1ccc([N+](=O)[O-])c2cccnc12` [Compound 8, 4-((5-nitroquinolin-8-yloxy)methoxy)-4-oxobutanoic acid], the solubility at 24 h in data set [1] (setting [6]) was less than 0.44 µg/mL.
As to `O=C(CCCCCCCO)OCOc1ccc([N+](=O)[O-])c2cccnc12` [Compound 10, (5-nitroquinolin-8-yloxy)methyl 8-hydroxyoctanoate], the solubility at 24 h in data set [1] (setting [6]) came out at 39.1 µg/mL (≈ 108 µM). Further, the figures for the “Percentage of the compound remaining in dog liver microsome” value in data set [2] (with coenzyme) and in data set [2] (without coenzyme) were 0.01% and 0.04%, respectively. Further, the “Percentage of the compound remaining in rat liver microsome” value in data set [3] (with coenzyme) is 0.02%; in data set [3] (without coenzyme), 0.03%. Also, the “Percentage of the compound remaining in human liver microsome” value in data set [4] (with coenzyme) is given as 0.01%; in data set [4] (without coenzyme) it was 0.04%.
With `COC(=O)CCCCC(=O)OCOc1ccc([N+](=O)[O-])c2cccnc12` [Compound 11, methyl (5-nitroquinolin-8-yloxy)methyl adipate], the solubility at 24 h in data set [1] (setting [6]) is 66.9 µg/mL (≈ 185 µM). Moreover, the “Percentage of the compound remaining in dog liver microsome” value was found to be 0.01% in data set [2] (with coenzyme) and 0.04% in data set [2] (without coenzyme). Moreover, the results for the “Percentage of the compound remaining in rat liver microsome” value in data set [3] (with coenzyme) and in data set [3] (without coenzyme) were 0.05% and 0.03%, respectively. Moreover, the “Percentage of the compound remaining in human liver microsome” value in data set [4] (with coenzyme) and in data set [4] (without coenzyme) was 0.01% each time.
In data set [1] (setting [6]), `CC(C)(C)OC(=O)NCCCCCCC(=O)OCOc1ccc([N+](=O)[O-])c2cccnc12` [Compound 12, (5-nitroquinolin-8-yloxy)methyl 7-(tert-butoxycarbonylamino)heptanoate] yielded a solubility at 24 h of 1.85 µg/mL (≈ 4.13 µM). The “Percentage of the compound remaining in dog liver microsome” value in data set [2] (with coenzyme) turned out to be 0.00%; in data set [2] (without coenzyme), 0.02%. The entries for the “Percentage of the compound remaining in rat liver microsome” value in data set [3] (with coenzyme) and in data set [3] (without coenzyme) were 0.00% and 0.02%, respectively. In addition, the “Percentage of the compound remaining in human liver microsome” value in data set [4] (with coenzyme) turned out to be 0.00%; in data set [4] (without coenzyme) it was 0.03%.
`CC(C)(C)OC(=O)N[C@@H](Cc1ccccc1)C(=O)OCOc1ccc([N+](=O)[O-])c2cccnc12` [Compound 13, (S)-(5-Nitroquinolin-8-yloxy)methyl 2-(tert-butoxycarbonylamino)-3-phenylpropionate]: the “Percentage of the compound remaining in dog liver microsome” value in data set [2] (with coenzyme) and in data set [2] (without coenzyme) was 0.02% throughout. The entries for the “Percentage of the compound remaining in rat liver microsome” value in data set [3] (with coenzyme) and in data set [3] (without coenzyme) were 0.01% and 0.02%, respectively. Moreover, the “Percentage of the compound remaining in human liver microsome” value in data set [4] (with coenzyme) came out at 0.01%; in data set [4] (without coenzyme), 0.02%.
`CC(=O)N[C@@H](CC(C)C)C(=O)NCC(=O)OCOc1ccc([N+](=O)[O-])c2cccnc12` [Compound 15, (S)-(5-nitroquinolin-8-yloxy)methyl 2-(2-acetamido-4-methylpentanamido)acetate] registered a solubility at 24 h in data set [1] (setting [6]) of 205 µg/mL (≈ 475 µM).
On to `CSC[C@H](NC(C)=O)C(=O)OCOc1ccc([N+](=O)[O-])c2cccnc12` [Compound 16, (R)-(5-nitroquinolin-8-yloxy)methyl 2-acetamido-3-(methylthio)propionate], for which the solubility at 24 h in data set [1] (setting [6]) was 254 µg/mL (≈ 669 µM); in data set [1] (setting [7]), 443 µg/mL (≈ 1170 µM).
Take `CC(C)C(=O)N1CCC[C@@H]1C(=O)OCOc1ccc([N+](=O)[O-])c2cccnc12` [Compound 23, (R)-(5-nitroquinolin-8-yloxy)methyl 1-isopropionylpyrrolidine-2-carboxylate]: the solubility at 24 h is 818 µg/mL (≈ 2110 µM) in data set [1] (setting [6]) and 945 µg/mL (≈ 2440 µM) in data set [1] (setting [7]). Moreover, in data set [1], the “water solubility compared with nitroxoline” value is listed as “increased by several times”.
Turning to `CC(C)(C)C(=O)N1CCC[C@@H]1C(=O)OCOc1ccc([N+](=O)[O-])c2cccnc12` [Compound 24, (R)-(5-nitroquinolin-8-yloxy)methyl 1-pivaloylpyrrolidine-2-carboxylate], the solubility at 24 h in data set [1] (setting [6]) is 73.6 µg/mL (≈ 183 µM); in data set [1] (setting [7]), 942 µg/mL (≈ 2350 µM).
In the case of `O=C(OCOc1ccc([N+](=O)[O-])c2cccnc12)[C@@H]1CCCN1C(=O)c1ccccn1` [Compound 25, (S)-(5-nitroquinolin-8-yloxy)methyl 1-pyridineformylpyrrolidine-2-carboxylate], in data set [1] (setting [6]), the solubility at 24 h worked out at 275 µg/mL (≈ 651 µM).
For the compound `CC(=O)N[C@@H](Cc1ccc(O)cc1)C(=O)N1CCC[C@H]1C(=O)OCOc1ccc([N+](=O)[O-])c2cccnc12` [Compound 28, (S)-(5-nitroquinolin-8-yloxy)methyl 1-((S)-2-acetamido-3-(4-hydroxyphenyl)propionyl)pyrrolidine-2-carboxylate], the solubility at 24 h was 25.1 µg/mL (≈ 48.1 µM) in data set [1] (setting [6]) and 342 µg/mL (≈ 654 µM) in data set [1] (setting [7]).
On to `CC(=O)N[C@@H](CO)C(=O)N1CCC[C@H]1C(=O)OCOc1ccc([N+](=O)[O-])c2cccnc12` [Compound 30, (S)-(5-nitroquinolin-8-yloxy)methyl 1-((S)-2-acetamido-3-hydroxypropionyl)pyrrolidine-2-carboxylate], for which the solubility at 24 h is less than 0.25 µg/mL in data set [1] (setting [6]) and 940 µg/mL (≈ 2110 µM) in data set [1] (setting [7]). The “water solubility compared with nitroxoline” value in data set [1] is on record as “increased by several times”.
Take `COCC(=O)OCOc1ccc([N+](=O)[O-])c2cccnc12` [Compound 31, (5-nitroquinolin-8-yloxy)methyl 2-methoxyacetate]: the solubility at 24 h in data set [1] (setting [6]) was found to be 10.8 µg/mL (≈ 37.1 µM).
Still for that read-out and setting: for `O=C(OCOc1ccc([N+](=O)[O-])c2cccnc12)C1CCC1` [Compound 32, (5-nitroquinolin-8-yloxy)methyl cyclobutanecarboxylate] the value was 28.4 µg/mL (≈ 94.1 µM).
With `CC(=O)Oc1ccccc1C(=O)OCOc1ccc([N+](=O)[O-])c2cccnc12` [Compound 34, (5-nitroquinolin-8-yloxy)methyl 2-acetoxybenzoate], the solubility at 24 h in data set [1] (setting [6]) was 6.67 µg/mL (≈ 17.4 µM).
On the same count and under the same terms, for `O=C(COc1ccc(Cl)cc1Cl)OCOc1ccc([N+](=O)[O-])c2cccnc12` [Compound 35, (5-nitroquinolin-8-yloxy)methyl 2-(2,4-dichlorophenoxy)acetate] the value was 0.04 µg/mL (≈ 0.0945 µM).
The same measure, in the same setting: the value for `O=C(CN1CCOCC1)OCOc1ccc([N+](=O)[O-])c2cccnc12` [Compound 36, (5-nitroquinolin-8-yloxy)methyl 2-morpholinoacetate] was 298 µg/mL (≈ 858 µM); that for `CCCCCC(=O)OCOc1ccc([N+](=O)[O-])c2cccnc12` [Compound 40, (5-nitroquinolin-8-yloxy)methyl hexanoate] was 7.4 µg/mL (≈ 23.2 µM); that for `CCCCCCCC(=O)OCOc1ccc([N+](=O)[O-])c2cccnc12` [Compound 41, (5-nitroquinolin-8-yloxy)methyl octanoate] was less than 0.4 µg/mL.
On the same count and under the same terms, for `CCCCCCCCCC(=O)OCOc1ccc([N+](=O)[O-])c2cccnc12` [Compound 42, (5-nitroquinolin-8-yloxy)methyl decanoate] the value was less than 0.26 µg/mL; for `CCCCCCCCCCCC(=O)OCOc1ccc([N+](=O)[O-])c2cccnc12` [Compound 43, (5-nitroquinolin-8-yloxy)methyl dodecanoate], less than 0.25 µg/mL.
The compound `O=C1CCCC(Oc2ccc([N+](=O)[O-])c3cccnc23)O1` (stereo not drawn) [Compound 44, 6-(5-nitroquinolin-8-yloxy)-tetrahydropyran-2-one] came in with a solubility at 24 h in data set [1] (setting [6]) of 19.9 µg/mL (≈ 68.9 µM).
As for `O=C(CCCCC(=O)OCOc1ccc([N+](=O)[O-])c2cccnc12)OCOc1ccc([N+](=O)[O-])c2cccnc12` [Compound 46, bis(5-nitroquinolin-8-yloxy)-methyl adipate], the “Percentage of the compound remaining in dog liver microsome” value in data set [2] (with coenzyme) is listed as 0.01%; in data set [2] (without coenzyme) it was 0.03%. The “Percentage of the compound remaining in rat liver microsome” value in data set [3] (with coenzyme) is 0.00%; in data set [3] (without coenzyme), 0.05%. For the same compound, the “Percentage of the compound remaining in human liver microsome” value in data set [4] (with coenzyme) came to 0.00%; in data set [4] (without coenzyme), 0.06%.
On to `CCC(=O)OC(C)Oc1ccc([N+](=O)[O-])c2cccnc12` (stereo not drawn) [Compound 48, 1-(5-nitroquinolin-8-yloxy)ethyl propionate], for which the “Percentage of the compound remaining in mouse liver microsome” value in data set [5] (with coenzyme) is listed as 0.03%; in data set [5] (without coenzyme), 0.05%. For the same compound, the “Percentage of the compound remaining in dog liver microsome” value stood at 0.03% in data set [2] (with coenzyme) and 0.02% in data set [2] (without coenzyme). Further, the “Percentage of the compound remaining in rat liver microsome” value is on record as 0.06% in data set [3] (with coenzyme) and 0.03% in data set [3] (without coenzyme). In addition, the entries for the “Percentage of the compound remaining in human liver microsome” value in data set [4] (with coenzyme) and in data set [4] (without coenzyme) were 0.08% and 0.10%, respectively.
With `CC(C)OC(=O)OCOP(=O)(O)OCOc1ccc([N+](=O)[O-])c2cccnc12` [Compound 72, (hydroxy((5-nitroquinolin-8-yloxy)methoxy)phosphoryloxy)methyl isopropyl carbonate], in data set [1] (setting [6]), the solubility at 24 h was 1040 µg/mL (≈ 2490 µM). The “water solubility compared with nitroxoline” value in data set [1] is reported as “increased by several times”.
As for `Cc1oc(=O)oc1COc1ccc([N+](=O)[O-])c2cccnc12` [Compound 77, 4-methyl-5-((5-nitroquinolin-8-yloxy)methyl)-1,3-dioxol-2-one], the solubility at 24 h in data set [1] (setting [6]) was determined as 21.2 µg/mL (≈ 70.3 µM).
